Among the test systems are HCC-2998 colon; NCI-H23 lung; LOX IMVI melanoma; TK-10 renal; HCT-15 colon; SF-539 CNS; SW-620 colon; NCI/ADR-RES ovarian; SF-295 CNS; CAKI-1 renal.
Experiment in all cases: NCI tumour cell line growth inhibition, 48 h

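Protocol summary: plate cells (96-well), add compound at 5 concentrations, incubate 48 h, interpolate endpoints linearly. TGI: total growth inhibition.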

For `CSc1nc(-c2ccccc2)nc(=[N+]2CCOCC2)s1`, the TGI in the test with HCC-2998 colon, with NCI-H23 lung, in the test on LOX IMVI melanoma, in the test with TK-10 renal, in the test with HCT-15 colon and in the test with SF-539 CNS was greater than 100 µM in each case. The TGI in the test on SW-620 colon is greater than 100 µM.

For `CC(=O)c1c(O)cc(O)c(-c2c(C)cc(O)c3c2C(=O)c2cccc(O)c2C3=O)c1O`, the TGI in the test with LOX IMVI melanoma worked out at 27.4 µM; with TK-10 renal, 35.6 µM; with NCI/ADR-RES ovarian, 42.2 µM; in the test on HCT-15 colon it was 28.6 µM; in the test with SF-295 CNS it was 26.9 µM; with SF-539 CNS, 30.3 µM. The same compound yielded a TGI in the test with SW-620 colon of 36.8 µM.

Regarding `CCOP(=O)(Cc1nc(C#N)c(N)o1)OCC`, the TGI in the test with CAKI-1 renal, with HCC-2998 colon, with LOX IMVI melanoma, in the test with TK-10 renal, in the test with HCT-15 colon and with SF-295 CNS was greater than 100 µM each time. In addition, the TGI in the test on SW-620 colon was greater than 100 µM.

As for `COc1ccc(C2=Nc3c(nc(SC)[nH]c3=O)NC(c3ccccc3)C2)cc1` (stereo not drawn), the TGI in the test with CAKI-1 renal was 31 µM; with NCI-H23 lung, 45.6 µM; with LOX IMVI melanoma, greater than 100 µM; in the test on NCI/ADR-RES ovarian it was 77.3 µM; in the test on SF-295 CNS, 60.4 µM; in the test with SF-539 CNS, 37.3 µM. In the test on SW-620 colon, this compound had a TGI greater than 100 µM.

As for `COc1cc2nc(-c3cccs3)nc(N3C(c4cc(OC)c(OC)c(OC)c4)=NNC(=O)c4ccccc43)c2cc1OC`, the TGI with CAKI-1 renal is greater than 100 µM; in the test with NCI-H23 lung, 35.4 µM; in the test on LOX IMVI melanoma, 45.8 µM; in the test on TK-10 renal, 51.9 µM; with NCI/ADR-RES ovarian, 9.25 µM; in the test with HCT-15 colon it was 47.8 µM. The TGI is 42.6 µM in the test on SF-295 CNS and 44.6 µM with SF-539 CNS.

In the case of `CNC(=O)C1OC(n2cnc3c(NCc4cccc(I)c4)nc(Cl)nc32)C(O)C1O` (stereo not drawn), the TGI came to 40.7 µM in the test on CAKI-1 renal; 25.5 µM in the test on NCI-H23 lung; 27.2 µM with LOX IMVI melanoma; 29.8 µM with TK-10 renal; 24 µM in the test with NCI/ADR-RES ovarian; 20.4 µM in the test with HCT-15 colon. The TGI in the test on SF-295 CNS amounted to 40.4 µM; in the test with SF-539 CNS, 23 µM; in the test on SW-620 colon, 51.6 µM.

As for `CC1=NN2CCC(=O)N=C2S1`, the TGI in the test on CAKI-1 renal, with NCI-H23 lung, in the test on LOX IMVI melanoma, in the test with TK-10 renal, in the test with NCI/ADR-RES ovarian and in the test on HCT-15 colon was greater than 100 µM each time. Besides, the TGI in the test with SF-295 CNS, in the test with SF-539 CNS and with SW-620 colon was greater than 100 µM each time.

Consider `COc1ccc(C2=NN(c3nsc4ccccc34)C(=O)CC2)cc1`, for which the TGI with HCC-2998 colon, in the test on NCI-H23 lung, in the test on LOX IMVI melanoma, in the test on TK-10 renal, with HCT-15 colon and with SF-539 CNS was greater than 100 µM each time. The same compound had a TGI in the test on SW-620 colon greater than 100 µM.

`Cc1cc(OCC(O)CO)ccc1Cl` (stereo not drawn): the TGI with CAKI-1 renal, with HCC-2998 colon, in the test on NCI-H23 lung, in the test on LOX IMVI melanoma, with TK-10 renal and with HCT-15 colon was greater than 100 µM in each case. Moreover, the TGI with SF-295 CNS, in the test with SF-539 CNS and in the test with SW-620 colon was greater than 100 µM each time.

`Cc1ccc(S(=O)(=O)N/N=C\c2c3ccccc3[n+](C)c3ccccc23)cc1`: the TGI in the test on CAKI-1 renal was greater than 100 µM; in the test on HCC-2998 colon it was greater than 100 µM; in the test on NCI-H23 lung, greater than 100 µM; in the test with LOX IMVI melanoma, 52.9 µM; in the test on TK-10 renal, greater than 100 µM; in the test on HCT-15 colon it was 97.4 µM. In addition, the TGI in the test on SF-295 CNS is 30.3 µM; in the test with SF-539 CNS, 54 µM; with SW-620 colon, greater than 100 µM.

As to `Cc1ccc2c(=O)cc(-c3cccc(F)c3)[nH]c2n1`, the TGI was greater than 100 µM in the test on CAKI-1 renal; 0.401 µM in the test with HCC-2998 colon; 0.739 µM in the test on NCI-H23 lung; greater than 100 µM in the test with LOX IMVI melanoma; greater than 100 µM with TK-10 renal; 0.78 µM in the test on SF-539 CNS. Besides, the TGI in the test with SW-620 colon was greater than 100 µM.

`NS(=O)(=O)c1ccc(NCc2nc3ccccc3[nH]2)cc1`: the TGI in the test on CAKI-1 renal, with NCI-H23 lung, in the test with LOX IMVI melanoma, with TK-10 renal, with NCI/ADR-RES ovarian and in the test with HCT-15 colon was greater than 100 µM in each case. Further, the TGI in the test on SF-295 CNS and in the test with SF-539 CNS was greater than 100 µM throughout.

Regarding `COC(=O)C(CNC(=O)/C=C/c1ccc(OC(C)=O)c(OC(C)=O)c1)NC(=O)/C=C/c1ccc(OC(C)=O)c(OC(C)=O)c1` (stereo not drawn), the TGI in the test on CAKI-1 renal, with HCC-2998 colon, in the test on NCI-H23 lung, with LOX IMVI melanoma, with TK-10 renal and with HCT-15 colon was greater than 100 µM in each case. For the same compound, the TGI in the test with SF-295 CNS, in the test with SF-539 CNS and in the test with SW-620 colon was greater than 100 µM in each case.

These data come from PubChem BioAssay (NCI).
